4 compounds from US20250352590A1, “Functional postbiotic composition for homeostatic vaginal care” (Seed Health Inc., priority 2024, published 2025) can be followed below.

The subject of data set [1] is EpiVaginal (VEC-100) 3-D tissues. Kind of data set: Barrier integrity by transepithelial electrical resistance (TEER) in EpiVaginal tissues. The class given is cell-based. The conditions noted are these: 24 hr exposure; for TEER avg. (% of VC): tissues in triplicate, normalized to average TEER of vehicle control VC. As to the method:
(§1) EpiVaginal (VEC-100) 3-D tissues, produced by MatTek Corporation, were used to evaluate eight test conditions plus a positive control known to have negative effects on tissue viability and barrier function (nonoxynol-9); the conditions tested are given in Table 3 below. Barrier integrity was measured at baseline, and tissues were treated in triplicate with test articles for 24 hours. Three tissues were left untreated to serve as negative control (NC); three tissues were treated with 4% nonoxynol-9 to serve as positive control (PC); and three tissues were dosed with media to serve as vehicle control (VC). At the end of 24 hr exposure to the test articles, barrier integrity was measured using transepithelial electrical resistance (TEER) and two tissues were used to assess tissue viability with the MTT assay. From each treatment group, one tissue was fixed in 10% formalin and processed for H&E staining for histological analysis.
Throughout this Example and Example 8 below, “VS-01” refers to a consortium of three Lactobacillus crispatus strains: LUCA011 (ATCC Accession Deposit No. PTA-127214) at a concentration of 3.70·10^10 CFU/g, LUCA009 (ATCC Accession Deposit No. PTA-127213) at a concentration of 8.60·10^9 CFU/g, and LUCA103 (ATCC Accession Deposit No. PTA-127218) at a concentration of 2.50·10^10 CFU/g. A stock of 10^6 CFU/mL of the combined strains was used for testing. A comparator strain, L. crispatus ATCC 33197, was sourced from the American Type Culture Collection, and it was determined by bioinformatic analysis that the genome of this strain had between 99.0% and 99.2% average nucleotide identity (ANI) with each of the three VS-01 strains.
The concentration of VS-01 most relevant to in vivo exposure in the VEC-100 model (10^6 CFU/mL) was determined using two different approaches: (1) Comparison of the exposure per unit area of vaginal surface area between VS-01 in vivo and VS-01 in the VEC-100 model. As known from the literature, the average surface area of the human vagina ranges from 65.73 to 107.07 cm^2 with a mean of 87.46 cm^2 and a standard deviation of 7.80 cm^2. If an 850 mg tablet as described in Example 3 instantaneously dissolved, the estimated coverage would be 9.7 mg/cm^2 (850 mg/87.46 cm^2). This most closely corresponds to a 1:100 dilution of the tablet and can be considered an upper bound, given that the tablet dissolves slowly over a 24-hour period. (2)
Comparison of the ratio of L. crispatus cells to vaginal epithelial cells in vivo and in the VEC-100 model. […] The Mattek model contains between about 350,000 and about 500,000 cells at a depth of three to five layers. If 100,000 epithelial cells are exposed at the surface, exposure to 10^6 bacterial cells produces a reasonable estimate of a 10:1 bacterial cell/epithelial cell ratio.
An estimate of the concentration of D-lactate most relevant to in vivo exposure was obtained considering tablet dissolution kinetics. Tablets as described in Example 3 are slow-release formulations, dissolving over the course of […]. The volume of cervicovaginal fluid (CVF) present in the vagina is variable, ranging from about 1 mL to about 4 mL, with a discharge rate of about 2 mL to about 5 mL over 24 hours; thus, the dissolution rate of a tablet as described in Example 3 would be about 71 mg/hour. D-lactate concentrations of tablets as described in Example 3 range from about 34 mg/tablet to about 44 mg/tablet. Estimating that 8.4% of an 850 mg tablet dissolves per hour (71 mg/hour divided by 850 mg/tablet) gives an estimated in vivo D-lactate concentration range of 31.7 mM to 40.44 mM D-lactate. Therefore, testing 10 mM and 100 mM D-lactate in this Example covers the physiological range of estimated exposure given the expected variability in the exact concentration of D-lactate per tablet. […]

For data set [2] the test system is unchanged. Kind of data set: Tissue viability by MTT assay in EpiVaginal tissues. Format: cell-based. To be noted: 24 hr exposure. As to the method:
as §1
Background: Tetrazolium dyes change colour on reduction, which living cells bring about.

On to `C[C@@H](O)C(=O)O` [D-lactate], for which the “Barrier integrity / TEER, result in words” value in data set [1] is recorded as “did not result in significant improvements in TEER over VC”.
As to `C[C@@H](O)C(=O)O` [TA6, D-lactate], the “TEER avg. (% of VC)” value in data set [1] was 128.4 % of VC.
For `C[C@@H](O)C(=O)O` [TA7, D-lactate], the “TEER avg. (% of VC)” value in data set [1] is 114.8 % of VC.
As for nonoxynol-9 [PC], in data set [1], the “Barrier integrity / TEER, result in words” value is “barrier disruption” and the “TEER avg. (% of VC)” value is given as 0.6 % of VC. The “TEER vs NC” value in data set [1] (relative to untreated negative control NC) was 0.2%. For the same compound, in data set [1] (relative to vehicle control VC), the “TEER vs VC” value is on record as 0.6%. The “Cytotoxicity / tissue viability (MTT), result in words” value in data set [2] was “severe cytotoxicity”.
